Experimental data as given in paper PMC9778984, “5′-Chalcogen-Substituted Nucleoside Pyrophosphate and Phosphate Monoester Analogues: Preparation and Hydrolysis Studies” (International Journal of Molecular Sciences, 2022).

Legend:
[1] = Hydrolysis of dinucleoside pyrophosphates at 90 °C, analysed by CZE and RP-HPLC; format: physicochemical; conditions: for half-life of the total disappearance: neutral conditions; for rate constant for the decomposition of the deadenylation (depurination) product / rate constant for the formation of the deadenylation (depurination) product: kinetics of parallel and consecutive reactions
Protocol: Reactions of pyrophosphates dASppA (1a) and 3′,5′-dTSppA (3) were studied at 90 °C. Samples taken from reaction solutions were analysed by two methods: capillary zone electrophores (CZE) and reversed-phase HPLC (RP-HPLC), for detection of polar and neutral reaction components, respectively. […] In general, the reactivity of 1a and 3 is low; the half-lives under neutral conditions are measured in tens of days even at 90 °C. The rate of the total disappearance of thiopyrophosphates 1a and 3 is practically pH-independent between pH 6 to 9. The reactivity increases at a lower pH; under alkaline conditions, the rate-enhancement is more modest.
Kinetic experiments with dinucleoside pyrophosphates 1a,b and 3 have been carried out using methods that have been reported previously, and are only briefly described below. Other experimental methods are described in detail in the Supplementary Materials (Figures S1 and S2, Tables S1 and S2).
Capillary zone electrophoretic (CZE) analysis was carried on an HP ^3DCE or on a Beckman Coulter P/ACE MDQA equipment. A fused silica capillary (57 cm effective length, 75 μm i.d.) was used. The background electrolyte was a 25 mM potassium phosphate buffer (pH 7.2). A voltage of 25–30 kV was applied and the compounds were detected at […] (HP) or 254 nm (Beckman).
RP-HPLC analysis was carried on an Agilent 1100 HPLC equipped with a DAD-detector. A Supelcosil LC-18 column (25 × 0.4 cm, particle size 5 μm) was used to separate reaction components. Eluents were mixtures of acetonitrile (MeCN) (Honeywell, Germany) and acetate buffer (0.05 M, pH 4.3) containing 0.1 M ammonium chloride (Sigma-Aldrich, Seelze, Germany). The gradient program used in routine analysis was as follows: 0–10 min isocratic 5% MeCN, 10–20 min a linear gradient to 33% MeCN, 20–30 min isocratic 33% MeCN, 30–35% a linear gradient to 5% MeCN. Flow rate was 1 mL/ min. UV-active compounds were detected at 260 nm.
Rate constants were calculated by applying the integrated first-order rate law to the disappearance of the starting material. Rate constants for the formation and decompositions of products were calculated by applying the rate law of parallel and consecutive reactions. In the case of 2, the concentration of the starting material and products were determined using calibration curves based on authentic samples. Diphenyl phosphate was used as an internal standard in reactions.

[2] = pKa of the phosphoryl moieties by 31P NMR titration; format: physicochemical; conditions: from Pβ resonance shift on acidification of aqueous solution; represents a maximum pKa value
Protocol: (§1) In order to further assess the potential for chalcogen-substituted pyrophosphate linkages to enable targeted drug delivery, the pKa values of the phosphoryl moieties were assessed using ^31P NMR titration. […] Similar values were determined for dTChppA (3.2 for 2a; 3.4 for 2b) although maximal shifts of 0.2 ppm were observed and a second inflection at ca. pH 8.5 may indicate that the shifts reflect nucleobase ionisation as significant intramolecular base stacking occurs in AppA and other dinucleoside pyrophosphates. However, the titrations’ inflections represent a maximum pKa value and therefore indicate that these moieties will be fully charged at physiological pH. We therefore briefly compared the cleavage of these pyrophosphates using snake venom monitoring the reactions of NADH, dTSppA (2a) and dTSeppA (2b) by ^31P NMR. Over 95% consumption of the native pyrophosphate substrate was observed consumed within one hour. In contrast, ca. 25% and 20% of the sulfur- and selenium-substituted analogues were cleaved during this timeframe. […] In contrast, digestion of dTSeppA plateaued at ca. 45% which may result from denaturation of the protein following release of 5′-dTSeMP and subsequent spontaneous hydrolysis to the corresponding selenol and its subsequent interaction with the active site zinc dyad and disulfide linkages.

[3] = tested on: snake venom (SVPDE); assay: Snake venom (SVPDE) digestion monitored by 31P NMR; format: biochemical; conditions: for mM consumed (31P NMR): 10 mM substrate, 37 °C, pH 7.5; for substrate consumed (digestion): over the subsequent 14 h; for substrate consumed (cleaved): within one hour
Protocol: as §1
To a solution of 10 mM substrate (NADH/dTSppA (2a)/dTSeppA (2b)) in aqueous buffer (TrisꞏHCl (50 mM, pH 7.5), NaCl (50 mM), 1mM MgCl2ꞏ(H2O)6) was added a solution of snake venom 0.2 mg/µL (10 µL). The reaction mixtures were incubated at 37°C for 30 minutes. Digestion was monitored by 31P NMR. dX(Ch)ppA SV P D digestion […]
mM NADH mM dTSppA mM dTSeppA time/h consumed time/h consumed time/h consumed

[4] = Hydrolysis of nucleotides (phosphorus-chalcogen bond cleavage of monoesters) in aqueous buffer, monitored by 31P NMR; format: physicochemical; conditions: for ΔH^‡ of phosphorus-chalcogen bond cleavage / ΔS^‡ of phosphorus-chalcogen bond cleavage: neutral pH, Eyring parameters from variable temperature NMR
Protocol: Novel sulfur and selenium substituted 5′,5′-linked dinucleoside pyrophate analogues were prepared in a vibration ball mill from the corresponding persilylated monophosphate. The chemical hydrolysis of pyrophosphorochalcogenolate-linked dimers was studied over a wide pH-range. […] The chemical stability of the precursor phosphorochalcogenolate monoesters was also investigated. […] The rate of dephosphorylation was dependent upon both the nature of the chalcogen and the pH. The integrity of the P-S bond in the corresponding phosphorothiolate was maintained at high pH but rapidly degraded at pH 3. In contrast, P-Se bond cleavage of the phosphoroselenolate monoester was rapid and the rate increased with alkalinity. The results obtained in kinetic experiments provide insight on the reactivity of the novel pyrophosphates studied as well as of other types of thiosubstituted biological phosphates.
Evidence for a dissociative transition state can be seen in the Eyring parameters derived from variable temperature NMR analysis of the phosphorus-chalcogen bond cleavage kinetics at 29 8K, 308 K and 318 K under neutral pH conditions. Thus, positive ΔS^‡ values of 79 and 35 J mol^−1 K^−1 were determined for 5′-dTSMP (4a) and 5′-dTSeMP (4b), respectively.

[5] = as above; format: physicochemical

Nc1ncnc2c1ncn2[C@@H]1O[C@H](COP(=O)(O)OP(=O)(O)SC[C@H]2O[C@@H](n3cnc4c(N)ncnc43)[C@H](O)[C@@H]2O)[C@@H](O)[C@H]1O [1a, 5′-Thioadenosine 5′-Pyrophosphate (P′→5′) adenosine]
half-life of the total disappearance ([1]; 90 °C): tens of days | rate constant of the total disappearance ([1]; pH 2, 90 °C): 9.3e-05 s⁻¹ | phosphate hydrolysis rate constant relative to that reported for Ap2A (1c) ([1]; pH 2, 90 °C, same conditions, Ap2A value from ref 33): six times larger | rate constant of phosphate hydrolysis ([1]; pH 2, 90 °C, total disappearance divided, assuming the two deadenylation routes are equally fast): 5.5e-05 s⁻¹ | pKa [2]: 3

Nc1ncnc2c1ncn2[C@@H]1O[C@H](COP(=O)(O)OP(=O)(O)[Se]C[C@H]2O[C@@H](n3cnc4c(N)ncnc43)[C@H](O)[C@@H]2O)[C@@H](O)[C@H]1O [1b, 5′-deoxy-5′-selenoadenosine 5′-pyrophosphate (P′ →5′) adenosine]
rate constant of the total disappearance ([1]; pH 2, 90 °C): (1.55 ± 0.04) × 10^−4 s^−1 | rate constants from the initial linear plot relative to those obtained for 1a ([1]; pH above acidic, where the reaction is not first-order, 90 °C, difference largest under neutral conditions): 5 to 20 times | pKa [2]: 3.3

Cc1cn([C@H]2C[C@H](O)[C@@H](CSP(=O)(O)OP(=O)(O)OC[C@H]3O[C@@H](n4cnc5c(N)ncnc54)[C@H](O)[C@@H]3O)O2)c(=O)[nH]c1=O [2a, 5'-thiothymidine 5'-pyrophosphate (P' →5') adenosine]
pKa [2]: 3.2 | mM consumed (31P NMR) ([3]; time 1 h): 2.57 mM | mM consumed (31P NMR) ([3]; time 2 h): 4.17 mM | mM consumed (31P NMR) ([3]; time 4 h): 7.12 mM | mM consumed (31P NMR) ([3]; time 15 h): 10 mM | substrate consumed (digestion) [3]: complete consumption | substrate consumed (cleaved) [3]: ca. 25%

Cc1cn([C@H]2C[C@H](O)[C@@H](C[Se]P(=O)(O)OP(=O)(O)OC[C@H]3O[C@@H](n4cnc5c(N)ncnc54)[C@H](O)[C@@H]3O)O2)c(=O)[nH]c1=O [2b, 5′-deoxy-5′-selenothymidine 5′-pyrophosphate (P′ →5′) adenosine]
pKa [2]: 3.4 | mM consumed (31P NMR) ([3]; time 1 h): 2.13 mM | mM consumed (31P NMR) ([3]; time 2 h): 3.19 mM | mM consumed (31P NMR) ([3]; time 3 h): 3.98 mM | mM consumed (31P NMR) ([3]; time 5 h): 4.41 mM | mM consumed (31P NMR) ([3]; time 7 h): 4.45 mM | mM consumed (31P NMR) ([3]; time 9 h): 4.48 mM | mM consumed (31P NMR) ([3]; time 15 h): 4.61 mM | substrate consumed (digestion) [3]: ca. 45% | substrate consumed (cleaved) [3]: ~20%

Cc1cn([C@H]2C[C@H](O)[C@@H](CSP(=O)(O)O)O2)c(=O)[nH]c1=O [4a]
time for hydrolysis ([4]; acidic conditions, 25 °C): within hours | ΔH^‡ of phosphorus-chalcogen bond cleavage [4]: 30.23 kcal/mol | ΔS^‡ of phosphorus-chalcogen bond cleavage [4]: 79 J mol^−1 K^−1 | k (rate constant for the hydrolysis) ([4]; pH 3, 298 K): 152 10^−6 s^−1 | reactivity difference between 5′-dTSMP (4a) and 5′-TMP (4c) ([4]; pH 3, estimated on the basis of Table 1): approximately 700,000 fold | k (rate constant for the hydrolysis) ([4]; pH 7, 298 K): 5.19 10^−6 s^−1 | k (rate constant for the hydrolysis) ([4]; pH 7, 308 K): 17.1 10^−6 s^−1 | k (rate constant for the hydrolysis) ([4]; pH 7, 318 K): 58.4 10^−6 s^−1 | k (rate constant for the hydrolysis) ([4]; pH 11, 298 K): 0.34 10^−6 s^−1

Cc1cn([C@H]2C[C@H](O)[C@@H](C[Se]P(=O)(O)O)O2)c(=O)[nH]c1=O [4b]
ΔH^‡ of phosphorus-chalcogen bond cleavage [4]: 26.43 kcal/mol | ΔS^‡ of phosphorus-chalcogen bond cleavage [4]: 35 J mol^−1 K^−1 | k (rate constant for the hydrolysis) ([4]; pH 3, 298 K): 53.1 10^−6 s^−1 | k (rate constant for the hydrolysis) ([4]; pH 7, 298 K): 16.8 10^−6 s^−1 | k (rate constant for the hydrolysis) ([4]; pH 11, 298 K): 14.4 10^−6 s^−1 | k (rate constant for the hydrolysis) ([5]; pH 7, 303 K): 75.1 10^−6 s^−1 | k (rate constant for the hydrolysis) ([5]; pH 7, 313 K): 297 10^−6 s^−1

Cc1cn([C@H]2C[C@H](O)[C@@H](COP(=O)(O)O)O2)c(=O)[nH]c1=O [4c, 5′-TMP, reference compound]
k (rate constant for the hydrolysis) ([4]; pH 3, 363 K): 2.60 10^−6 s^−1

NC(=O)C1=CN([C@@H]2O[C@H](COP(=O)(O)OP(=O)(O)OC[C@H]3O[C@@H](n4cnc5c(N)ncnc54)[C@H](O)[C@@H]3O)[C@@H](O)[C@H]2O)C=CC1 [NADH, reference compound]
mM consumed (31P NMR) ([3]; time 1 h): 9.62 mM | mM consumed (31P NMR) ([3]; time 2 h): 10 mM | substrate consumed (cleaved) [3]: Over 95%

Cc1cn([C@H]2C[C@H](S[P@](=O)(O)O[P@](=O)(O)OC[C@H]3O[C@@H](n4cnc5c(N)ncnc54)[C@H](O)[C@@H]3O)[C@@H](CO)O2)c(=O)[nH]c1=O [compound 3]
half-life of the total disappearance ([1]; 90 °C): tens of days | rate constant for dethyminylation ([1]; neutral pH, 90 °C, non-linear regression on thymine formation, rather approximate): (2.2 ± 0.2) × 10^−7 s^−1

Nc1ncnc2c1ncn2[C@@H]1O[C@H](CS[P@](=O)(O)O[P@](=O)(O)OC[C@@H](O)[C@@H](O)[C@@H](O)C=O)[C@@H](O)[C@H]1O [compound 13]
rate constant for the decomposition of the deadenylation (depurination) product ([1]; pH 2, 90 °C): 3.1e-05 s⁻¹ | rate constant for the formation of the deadenylation (depurination) product ([1]; pH 2, 90 °C): 1.9e-05 s⁻¹

Cc1cn([C@H]2C[C@H](S[P@](=O)(O)O[P@](=O)(O)OC[C@@H](O)[C@@H](O)[C@@H](O)C=O)[C@@H](CO)O2)c(=O)[nH]c1=O [compound 18]
rate constant for the decomposition of the deadenylation (depurination) product ([1]; pH 2, 90 °C): 2e-05 s⁻¹ | rate constant for the formation of the deadenylation (depurination) product ([1]; pH 2, 90 °C): 2.3e-05 s⁻¹
